Measurements as given in PubChem BioAssay (NCI).
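At the GI50, growth is halved. TGI: total growth inhibition.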

Columns and labels:
Test in all cases: inhibition of tumour cell growth, NCI panel, 384-well format
786-0 renal = system: 786-0 renal
A498 renal = system: A498 renal
A549 NSCLC = system: A549 NSCLC
ACHN renal = system: ACHN renal
BT-549 breast = system: BT-549 breast
CAKI-1 renal = system: CAKI-1 renal
CCRF-CEM leukemia = system: CCRF-CEM leukemia
COLO 205 colon = system: COLO 205 colon
DU-145 prostate = system: DU-145 prostate
EKVX NSCLC = system: EKVX NSCLC
HCC-2998 colon = system: HCC-2998 colon
HCT-116 colon = system: HCT-116 colon
HCT-15 colon = system: HCT-15 colon
HL-60(TB) leukemia = system: HL-60(TB) leukemia
HOP-62 NSCLC = system: HOP-62 NSCLC
HOP-92 NSCLC = system: HOP-92 NSCLC
HS 578T breast = system: HS 578T breast
HT29 colon = system: HT29 colon
IGROV1 ovarian = system: IGROV1 ovarian
K-562 leukemia = system: K-562 leukemia
KM12 colon = system: KM12 colon
LOX IMVI melanoma = system: LOX IMVI melanoma
M14 melanoma = system: M14 melanoma
MALME-3M melanoma = system: MALME-3M melanoma
MCF7 breast = system: MCF7 breast
MDA-MB-231 breast = system: MDA-MB-231 breast
MDA-MB-435 melanoma = system: MDA-MB-435 melanoma
MDA-MB-468 breast = system: MDA-MB-468 breast
MOLT-4 leukemia = system: MOLT-4 leukemia
NCI-H226 lung = system: NCI-H226 lung
NCI-H23 lung = system: NCI-H23 lung
NCI-H322M lung = system: NCI-H322M lung
NCI-H460 NSCLC = system: NCI-H460 NSCLC
NCI-H522 lung = system: NCI-H522 lung
NCI/ADR-RES ovarian = system: NCI/ADR-RES ovarian
OVCAR-3 ovarian = system: OVCAR-3 ovarian
OVCAR-4 ovarian = system: OVCAR-4 ovarian
OVCAR-8 ovarian = system: OVCAR-8 ovarian
PC-3 prostate = system: PC-3 prostate
RPMI-8226 leukemia = system: RPMI-8226 leukemia
RXF 393 renal = system: RXF 393 renal
SF-268 CNS = system: SF-268 CNS
SF-295 CNS = system: SF-295 CNS
SF-539 CNS = system: SF-539 CNS
SK-MEL-28 melanoma = system: SK-MEL-28 melanoma
SK-MEL-5 melanoma = system: SK-MEL-5 melanoma
SK-OV-3 ovarian = system: SK-OV-3 ovarian
SN12C renal = system: SN12C renal
SNB-19 CNS = system: SNB-19 CNS
SNB-75 CNS = system: SNB-75 CNS
SR leukemia = system: SR leukemia
SW-620 colon = system: SW-620 colon
T-47D breast = system: T-47D breast
TK-10 renal = system: TK-10 renal
U251 glioblastoma = system: U251 glioblastoma
UACC-257 melanoma = system: UACC-257 melanoma
UACC-62 melanoma = system: UACC-62 melanoma
UO-31 renal = system: UO-31 renal

Cc1nnc(C[C@@H]2C=C(c3ccc(Cl)cc3)c3ccccc3-n3c(C)nnc32)o1
GI50 ([…]-0 renal): 0.424 µM | TGI (786-0 renal): 20.8 µM | GI50 (A498 renal): 0.783 µM | TGI (A498 renal): 16.3 µM | GI50 (A549 NSCLC): 0.989 µM | TGI (A549 NSCLC): 26.4 µM | GI50 (ACHN renal): 1.96 µM | TGI (ACHN renal): 56.8 µM | GI50 (BT-549 breast): 0.238 µM | TGI (BT-549 breast): 10 µM | GI50 (CAKI-1 renal): 0.0908 µM | TGI (CAKI-1 renal): 13.5 µM | GI50 (CCRF-CEM leukemia): 0.357 µM | TGI (CCRF-CEM leukemia): 12.5 µM | GI50 (COLO 205 colon): 0.487 µM | TGI (COLO 205 colon): 17.2 µM | GI50 (DU-145 prostate): 5.28 µM | TGI (DU-145 prostate): 43 µM | GI50 (EKVX NSCLC): 17.5 µM | TGI (EKVX NSCLC): 66.8 µM | GI50 (HCC-2998 colon): 0.285 µM | TGI (HCC-2998 colon): 2.46 µM | GI50 (HCT-116 colon): 0.453 µM | TGI (HCT-116 colon): 17.9 µM | GI50 (HCT-15 colon): 0.283 µM | TGI (HCT-15 colon): 10.4 µM | GI50 (HL-60(TB) leukemia): 0.0346 µM | TGI (HL-60(TB) leukemia): 0.144 µM | GI50 (HOP-62 NSCLC): 0.316 µM | TGI (HOP-62 NSCLC): 16.2 µM | GI50 (HOP-92 NSCLC): 0.595 µM | TGI (HOP-92 NSCLC): 45 µM | GI50 (HS 578T breast): 0.0882 µM | TGI (HS 578T breast): 1.4 µM | GI50 (HT29 colon): 0.267 µM | TGI (HT29 colon): 14.5 µM | GI50 (IGROV1 ovarian): 0.631 µM | TGI (IGROV1 ovarian): 15.2 µM | GI50 (K-562 leukemia): 0.377 µM | TGI (K-562 leukemia): 15.4 µM | GI50 (KM12 colon): 1.69 µM | TGI (KM12 colon): 20.7 µM | GI50 (LOX IMVI melanoma): 0.192 µM | TGI (LOX IMVI melanoma): 0.469 µM | GI50 (M14 melanoma): 0.935 µM | TGI (M14 melanoma): 38.8 µM | GI50 (MALME-3M melanoma): 0.382 µM | TGI (MALME-3M melanoma): 19.3 µM | GI50 (MCF7 breast): 0.087 µM | TGI (MCF7 breast): 21.4 µM | GI50 (MDA-MB-231 breast): 0.39 µM | TGI (MDA-MB-231 breast): > 100 µM | GI50 (MDA-MB-435 melanoma): 2.13 µM | TGI (MDA-MB-435 melanoma): 17.1 µM | GI50 (MDA-MB-468 breast): 1.5 µM | TGI (MDA-MB-468 breast): 16.4 µM | GI50 (MOLT-4 leukemia): 0.321 µM | TGI (MOLT-4 leukemia): 10.2 µM | GI50 (NCI-H226 lung): 0.294 µM | TGI (NCI-H226 lung): 17.4 µM | GI50 (NCI-H23 lung): 0.545 µM | TGI (NCI-H23 lung): 12.9 µM | GI50 (NCI-H322M lung): 0.492 µM | TGI (NCI-H322M lung): 37.6 µM | GI50 (NCI-H460 NSCLC): 1.34 µM | TGI (NCI-H460 NSCLC): 18.7 µM | GI50 (NCI-H522 lung): 0.25 µM | TGI (NCI-H522 lung): 2.95 µM | GI50 (NCI/ADR-RES ovarian): 1.49 µM | TGI (NCI/ADR-RES ovarian): 12.5 µM | GI50 (OVCAR-3 ovarian): 0.379 µM | TGI (OVCAR-3 ovarian): 12.9 µM | GI50 (OVCAR-4 ovarian): 0.447 µM | TGI (OVCAR-4 ovarian): 4.91 µM | GI50 (OVCAR-8 ovarian): 0.246 µM | TGI (OVCAR-8 ovarian): 3.1 µM | GI50 (PC-3 prostate): 0.996 µM | TGI (PC-3 prostate): 33.2 µM | GI50 (RPMI-8226 leukemia): 0.059 µM | TGI (RPMI-8226 leukemia): 0.351 µM | GI50 (RXF 393 renal): 2.6 µM | TGI (RXF 393 renal): 18.3 µM | GI50 (SF-268 CNS): 3.22 µM | TGI (SF-268 CNS): 24 µM | GI50 (SF-295 CNS): 4.52 µM | TGI (SF-295 CNS): 32.6 µM | GI50 (SF-539 CNS): 1.65 µM | TGI (SF-539 CNS): 24.5 µM | GI50 (SK-MEL-28 melanoma): 0.987 µM | TGI (SK-MEL-28 melanoma): 36.7 µM | GI50 (SK-MEL-5 melanoma): 0.695 µM | TGI (SK-MEL-5 melanoma): 17.7 µM | GI50 (SK-OV-3 ovarian): 0.393 µM | TGI (SK-OV-3 ovarian): 15.3 µM | GI50 (SN12C renal): 12.5 µM | TGI (SN12C renal): 41.1 µM | GI50 (SNB-19 CNS): 2.55 µM | TGI (SNB-19 CNS): 31.6 µM | GI50 (SNB-75 CNS): 0.965 µM | TGI (SNB-75 CNS): > 100 µM | GI50 (SR leukemia): 0.0585 µM | TGI (SR leukemia): 0.371 µM | GI50 (SW-620 colon): 10.4 µM | TGI (SW-620 colon): 22.7 µM | GI50 (T-47D breast): 4.96 µM | TGI (T-47D breast): 57.9 µM | GI50 (TK-10 renal): 0.29 µM | TGI (TK-10 renal): 13.4 µM | GI50 (U251 glioblastoma): 3.89 µM | TGI (U251 glioblastoma): 25 µM | GI50 (UACC-257 melanoma): 7.05 µM | TGI (UACC-257 melanoma): 27.3 µM | GI50 (UACC-62 melanoma): 0.076 µM | TGI (UACC-62 melanoma): 12.2 µM | GI50 (UO-31 renal): 0.676 µM | TGI (UO-31 renal): > 100 µM
